{"source": "patent US10842883B2", "about": "“Aqueous oral solutions of steroid hormones and hydroxypropyl-β-cyclodextrin with optimised bioavailability” (ALTERGON S.A., priority 2012, dated 2020)", "origin": "cited, not measured here", "details": "Gould et al., Food Chem. Toxicol. 43 (2005)", "data": [{"compound": "CC(O)COC[C@H]1O[C@@H]2O[C@H]3[C@H](O)[C@@H](O)[C@@H](O[C@H]4[C@H](O)[C@@H](O)[C@@H](O[C@H]5[C@H](O)[C@@H](O)[C@@H](O[C@H]6[C@H](O)[C@@H](O)[C@@H](O[C@H]7[C@H](O)[C@@H](O)[C@@H](O[C@H]8[C@H](O)[C@@H](O)[C@@H](O[C@H]1[C@H](O)[C@H]2O)O[C@@H]8COCC(C)O)O[C@@H]7COCC(C)O)O[C@@H]6COCC(C)O)O[C@@H]5COCC(C)O)O[C@@H]4COCC(C)O)O[C@@H]3COCC(C)O", "note": "(stereo partly drawn) [hydroxypropyl-β-cyclodextrin]", "values": [{"measurement": "fraction absorbed after oral administration", "value": "about 5%"}]}]}
